# Values quoted from earlier work, collected in US20130302415A1, “Pharmaceutical Composition” (CIPLA Limited, priority 2010, published 2013).
# Details: class II = low solubility, high permeability
compound,measurement,value
"O=C1Nc2ccc(Cl)cc2[C@@](C#CC2CC2)(C(F)(F)F)O1 [Efavirenz, (S)-6-chloro-4-cyclopropylethynyl-4-trifluoromethyl-1,4-dihydro-2H-3,1-benzoxazin-2-one]",Biopharmaceutical Classification System class,class II
